Measured values as given in US7939541B2, “Intermediates and a process employing the intermediates for the preparation of (3-trifluoromethylsulfonyl)-N-[4-methyl-3-(4-pyridin-3yl-pyrimidin-2ylamino)-phenyl]-benzamide” (Natco Pharma Limited, priority 2004, dated 2011).

Legend:
[1] = tested on: ZR71 breast cancer cells; assay: In vitro angiogenic assay, ZR-71 conditioned media on human dermal endothelial cells; assay type: cell-based; conditions: ZR-71 cells, radiation status not specified
Protocol: (§1) The in vitro angiogenesis of 4910, 5310 and U87 glioma cells and MDAMB231 and ZR71 breast cancer cells in the presence of specified concentrations of compounds were determined as follows, cells (2×10^4/well) were seeded in 8-well chamber slides and were treated with various concentrations of test compounds. After a 24 h incubation period, the conditioned media was removed and added to a 4×10^4 human dermal endothelial cell (monolayer in 8-well chamber slides) and the human dermal endothelial cells were allowed to grow for 72 h. Cells were then fixed in 3.7% formaldehyde and stained with H&E and photographed.

[2] = tested on: Baf3 murine leukemia cells M351T; assay: Blast cell count in nude mice implanted with Baf3 M351T cells; assay type: in vivo; conditions: Baf3M351T; Imatinib 10 mg/kg, AN019 20 mg/kg, AN024 20 mg/kg, oral gavage or ip from day 15; day 42
Excerpt: (§2) Blood smears were obtained via the tail vein or via the femoral vein every 6th day and blast cells counted and graphically represented.
(§3) Abdominal swelling and decrease in activity was monitored daily, blood smear taken via the tail vein or the femoral vein every 6th day and H&E stained as per standard protocols. 42 days after implantation, mice were sacrificed and spleens harvested.
(§4) Blood from tail vein or the femoral vein was taken every 6th day from Baf3 cell implanted mice until day 42.
(§5) Nude mice were intraperitoneally implanted with Baf3 mutant cells (wt, T315I, M351T or E255K). […] Blood was drawn from the femoral vein or tail vein every 6th day and blast cell count determined and graphically represented.

[3] = in vivo; conditions: mouse
[4] = tested on: 4910 glioma cells; assay: In vitro angiogenic assay, 4910 conditioned media on human dermal endothelial cells; assay type: cell-based; conditions: 4910 cells, with radiation
Protocol: as §1

[5] = tested on: AKT, ERK and Pi3k in U87 glioma cells; assay: Western blot analysis, U87; assay type: cell-based; conditions: 24 h
Protocol: (§6) Western blot analysis of 4910, 5310 and U87 glioma cells and MDAMB231 and ZR71 breast cancer cells in the presence of specified concentrations of compounds were assessed as per standard protocols. Cells were treated with AN019, AN024 or Temozolomide at the specified concentrations. 24 h after treatment, cells were collected and cell lysates extracted. Equal quantities of proteins were fractionated by SDS-PAGE. The fractionated proteins were blotted on to nylon membranes and immunoprobed for AKT, ERK and Pi3k. Breast cancer cell protein isolates were additionally immunoprobed for EGFR, ErbB1, ErbB2 and ErbB3.

[6] = tested on: K562 luc human leukemia cells; assay: Luciferase expression in nude mice implanted with K562 luc cells, low dose oral administration; assay type: in vivo
Excerpt: Five mice were used per group and divided into 24 groups+2 control. All groups were implanted with K562 normal/luc cells. Of the 24 groups, 12 were used for luciferase studies whereas the other 12 were used for blood smear count studies.

[7] = tested on: Baf3 murine leukemia cells E255K; assay: Blast cell count in nude mice implanted with Baf3 E255K cells; assay type: in vivo; conditions: Baf3E255K (printed E225K); Imatinib 10 mg/kg, AN019 20 mg/kg, AN024 20 mg/kg, oral gavage or ip from day 15; day 42
Excerpt: as §2, §3, §4, §5

[8] = tested on: 4910 human glioma xenograft cells; assay: Glioma radiation studies, intracranial tumours; assay type: in vivo, nude mice
Protocol: Nude mice were intracranially implanted with 4910 human glioma xenograft cells (1×10^6 cells) intracranially. Ten days after implantation mice were treated with AN019, AN024 or temozolomide with or without radiation (5 Gy/week). The experiment was terminated at day 40 post implantation.

[9] = tested on: 5310 glioma cells; assay: In vitro angiogenic assay, 5310 conditioned media on human dermal endothelial cells; assay type: cell-based; conditions: 5310 cells
Protocol: as §1

[10] = tested on: pAKT and pERK in glioma and breast cancer cells; assay: Western blot analysis of pAKT and pERK, cell line not stated; assay type: cell-based; conditions: both with and without radiation
Protocol: as §6

[11] = tested on: K562luc cells; assay: Determination of drug temporal penetrance (Tp); assay type: in vivo, nude mice; conditions: daily ip from day 15 to day 35, imaged till day 45; AN019 20 mg/kg, AN024 20 mg/kg, Imatinib 10 mg/kg
Protocol: The temporal penetrance was calculated applying the following equation, […].
P=photon counts at day ‘a’, day ‘ter’, or day ‘b’ where ‘a’ is the day when drug treatment was stopped and ‘ter’ is the day when the experiment was terminated and ‘b’ is the day where P is minimum after day a but before day ‘ter’.
n=number of animals alive when P was measured.
The animals were imaged at 6 day intervals post transplantation. […] Drug treatment was stopped on day 35 and animals were imaged till day 45, and calculated as described in methods.

[12] = tested on: BCR-Abl, Crk and phospho Stat5AY^694/699 in K562 cells; assay: Western blot analysis of K562 cells treated with AN024; assay type: cell-based, human
Protocol: Expression levels of BCR-Abl, Crk and phospho Stat5AY^694/699 were determined by western blot analysis in K562 cells treated with various concentrations of AN024 (1, 2.5, 5 or 10 μg/ml) for 12 h.
K562 cells were treated with 1, 2.5, 5, or 10 μg/ml of AN024. After 12 h, cells were collected and total cell lysates were prepared in extraction buffer containing Tris [0.1 M, pH 7.5], Triton-X114 (1.0%), EDTA (10 mM), aprotinin, and phenylmethylsulphonyl fluoride. […] The membranes were probed for 2 h with antibodies against BCR-Abl, Crk and phospho Stat5AY^694/699 per standard protocols. The membranes were subsequently washed three times with PBS to remove excess primary antibodies, incubated with appropriate HRP conjugated secondary antibodies as required, and then developed according to enhanced chemiluminesence protocol (Amersham, Arlington Heights, Ill.).
FIG. 1 illustrates results of this testing. K562 cells were treated with various concentrations of AN024 (1-10 μg/ml). Cell lysates were collected and western blot analysis was performed per standard protocols. Expression levels of BCR-Abl, Crk and Stat5AY^694/699 were determined.

[13] = tested on: K562; assay: ED50 and therapeutic index in leukemic mice (K562); assay type: in vivo; conditions: Mus musculus, K562, po, read-out: ED50 (po) Mice
[14] = tested on: MDAMB231 breast cancer cells; assay: In vitro angiogenic assay, MDA-MB-231 conditioned media on human dermal endothelial cells; assay type: cell-based; conditions: MDA-MB-231 cells, with radiation
Protocol: as §1

Cc1ccc(NC(=O)c2cccc(S(=O)(=O)C(F)(F)F)c2)cc1Nc1nccc(-c2cccnc2)n1 [AN024, (3-trifluoromethylsulfonyl)-N-[4-methyl-3-(4-pyridin-3yl-pyrimidin-2ylamino)-phenyl]-benzamide]
inhibition of angiogenesis [1]: complete inhibition of angiogenesis | blast cell count in blood smears [2]: significant decrease in blast cell count | MTD [3]: 500 mg/kg | LD50 ([3]; po): 1440 mg/kg | inhibition of angiogenesis [4]: significant inhibition of angiogenesis | ERK levels ([5]; U87, after radiation): decrease was enhanced after radiation | ERK levels ([5]; U87, without radiation): slight decrease in ERK levels | luciferase expression ([6]; 1 mg/kg): did not induce a decrease in luciferase expression | luciferase expression ([6]; 5 mg/kg): caused a decrease in luciferase expression | luciferase expression ([6]; 10 mg/kg): caused a decrease in luciferase expression | luciferase expression ([6]; 20 mg/kg): caused a decrease in luciferase expression | blast cell count in blood smears [7]: significant decrease in blast cell count | intracranial tumours (size, appearance) ([8]; with radiation (5 Gy/week)): well defined surgically respectable tumours | intracranial tumours (size, appearance) ([8]; without radiation): well defined and not showing diffuse edges | inhibition of angiogenesis ([9]; after radiation treatment): angiogenesis further inhibited | inhibition of angiogenesis ([9]; control conditions (without radiation)): inhibition of angiogenesis was seen | pERK levels [10]: reduction on pERK levels but to a lesser extent than AN019 | temporal penetrance (Tp) [11]: 2.4 | BCR-Abl, Crk and phospho Stat5AY^694/699 protein levels ([12]; K562 cells, 1, 2.5, 5 or 10 μg/ml, 12 h, western blot): decreased in a dose dependent manner | BCR-Abl kinase activity ([12]; K562 cells, 1-10 μg/ml): inhibited BCR-Abl kinase activity in a dose dependent manner | ED50 [13]: 10 mg/kg | inhibition of angiogenesis [14]: only a slight inhibition
